Measured values taken from patent US7960131B2, “Functional genomic pore assay for mixed cell populations” (Wisconsin Alumni Research Foundation, priority 2003, dated 2011).
Values joined by “and” are separate entries in the source; they are usually repeats but may differ in a detail not shown here. Equal entries are not always repeated.

How the values were obtained:
P2X7 = molecular target: T1, P2X7 (Homo sapiens, UniProt Q99572); assay: YO-PRO-1 plate assay of P2X7 agonists with astrocytoma cell line 1321N1; assay type: cell-based; settings: for YO-PRO-1 fluorescence (485/20, 528/20), single well: 5 × 10^4 1321N1 cells; for YO-PRO-1 fluorescence, average of duplicate wells: 1321N1 cells;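 for all read-outs here: dye uptake read after 20 min agonist exposure with YO-PRO-1 present, unbound dye removed by washing before reading in a fluorescence plate reader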
T1 construct: host or cells: astrocytoma cell line (the earlier reading names it 1321N1)
T1 sequence (Q99572 1-595): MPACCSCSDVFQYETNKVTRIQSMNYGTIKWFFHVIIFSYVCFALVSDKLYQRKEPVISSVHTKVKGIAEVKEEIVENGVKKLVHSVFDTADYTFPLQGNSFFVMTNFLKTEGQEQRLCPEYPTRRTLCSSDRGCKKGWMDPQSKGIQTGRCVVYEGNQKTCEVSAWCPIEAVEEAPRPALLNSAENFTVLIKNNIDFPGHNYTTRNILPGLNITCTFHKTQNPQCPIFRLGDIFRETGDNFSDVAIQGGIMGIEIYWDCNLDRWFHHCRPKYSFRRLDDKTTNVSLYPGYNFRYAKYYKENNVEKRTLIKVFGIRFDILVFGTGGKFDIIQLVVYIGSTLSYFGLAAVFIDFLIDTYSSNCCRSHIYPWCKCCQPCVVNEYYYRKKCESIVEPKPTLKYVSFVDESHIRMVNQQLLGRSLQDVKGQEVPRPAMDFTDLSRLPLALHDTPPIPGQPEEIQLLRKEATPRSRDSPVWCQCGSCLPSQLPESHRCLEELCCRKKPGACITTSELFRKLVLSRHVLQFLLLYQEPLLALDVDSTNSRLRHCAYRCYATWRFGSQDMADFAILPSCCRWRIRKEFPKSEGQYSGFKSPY

[1] = test system: animal model of severe sepsis; settings: co-administration, mice; cited from earlier work

Row | Structure (SMILES) | YO-PRO-1 fluorescence (485/20, 528/20), single well (P2X7; agent 3 μM + YOPRO) | YO-PRO-1 fluorescence (485/20, 528/20), single well (P2X7; agent 10 μM + YOPRO) | YO-PRO-1 fluorescence (485/20, 528/20), single well (P2X7; agent 30 μM + YOPRO) | YO-PRO-1 fluorescence (485/20, 528/20), single well (P2X7; agent 100 μM + YOPRO) | YO-PRO-1 fluorescence (485/20, 528/20), single well (P2X7; agent 300 μM + YOPRO) | YO-PRO-1 fluorescence, average of duplicate wells (P2X7; 1 uM, agent + YOPRO) | YO-PRO-1 fluorescence, average of duplicate wells (P2X7; 3 uM, agent + YOPRO) | further results
1 | CSc1nc(N)c2ncn([C@@H]3O[C@H](COP(=O)(O)OP(=O)(O)OP(=O)(O)O)[C@@H](O)[C@H]3O)c2n1 [2MeSATP, 2-methylthio-adenosine 5′-triphosphate] | 109 and 102 | 144 | 157 and 154 | 155 and 170 | 168 and 162 | 105.5 | 144 | YO-PRO-1 fluorescence (485/20, 528/20), single well (P2X7; agent 1 mM + YOPRO): 161 and 164; LPS-induced serum levels of TNF-alpha and IL-1 [1]: reductions in LPS-induced serum levels of TNF-alpha and IL-1; protection from endotoxic death [1]: protects mice from endotoxic death
2 | Nc1ncnc2c1ncn2[C@@H]1O[C@H](COP(=O)(O)OP(=O)(O)NP(=O)(O)O)[C@@H](O)[C@H]1O [AMPPNP, adenosine 5′(beta,gamma-imido)triphosphate] | – | – | – | – | 75 and 86 | – | – | –
3 | CN([C@@H](Cc1ccc(OS(=O)(=O)c2cccc3cnccc23)cc1)C(=O)N1CCN(c2ccccc2)CC1)S(=O)(=O)c1cccc2cnccc12 [KN62] | – | – | – | – | – | – | – | YO-PRO-1 fluorescence (485/20, 528/20), single well (P2X7; 1 mM ATP + KN62 1 μM + YOPRO): 185 and 177; YO-PRO-1 fluorescence (485/20, 528/20), single well (P2X7; 1 mM ATP + KN62 3 μM + YOPRO): 181 and 176; YO-PRO-1 fluorescence (485/20, 528/20), single well (P2X7; 1 mM ATP + KN62 10 μM + YOPRO): 159; YO-PRO-1 fluorescence (485/20, 528/20), single well (P2X7; 1 mM ATP + KN62 30 μM + YOPRO): 155 and 153; YO-PRO-1 fluorescence (485/20, 528/20), single well (P2X7; 1 mM ATP + KN62 100 μM + YOPRO): 148; YO-PRO-1 fluorescence (485/20, 528/20), single well (P2X7; 1 mM ATP + KN62 300 μM + YOPRO): 152 and 165; YO-PRO-1 fluorescence, average of duplicate wells (P2X7; 1 mM ATP + KN62 1 uM + YOPRO): 181; YO-PRO-1 fluorescence, average of duplicate wells (P2X7; 1 mM ATP + KN62 3 uM + YOPRO): 178.5
4 | O=c1ccn([C@@H]2O[C@H](COP(=O)(O)OP(=O)(O)OP(=O)(O)O)[C@@H](O)[C@H]2O)c(=O)[nH]1 [UTP] | – | – | – | – | 72 and 73 | – | – | –
5 | Nc1ncnc2c1ncn2[C@@H]1O[C@H](COP(=O)(O)CP(=O)(O)OP(=O)(O)O)[C@@H](O)[C@H]1O [ab-CH2-ATP] | 68 and 69 | 74 | 74 and 78 | 89 and 83 | 101 and 116 | 67.5 | 68.5 | YO-PRO-1 fluorescence (485/20, 528/20), single well (P2X7; agent 1 μM + YOPRO): 68 and 67
